Measured values reported in PubChem BioAssay (NCI).
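Cultured in 96-well plates, cells were exposed to test compound for 48 hours across five concentrations. GI50 = concentration required for 50% inhibition of growth. TGI denotes the concentration required for complete inhibition of growth.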

Tests used:
Test in all cases: growth of human tumour cells (NCI), 48 h
[1] = tested on: TK-10 renal
[2] = tested on: PC-3 prostate
[3] = tested on: SK-MEL-28 melanoma
[4] = tested on: SNB-19 CNS
[5] = tested on: HOP-92 NSCLC
[6] = tested on: SN12C renal
[7] = tested on: HOP-62 NSCLC
[8] = tested on: HCT-15 colon
[9] = tested on: SK-MEL-2 melanoma
[10] = tested on: ACHN renal

| SMILES | GI50 [1] | TGI [1] | GI50 [2] | TGI [2] | GI50 [3] | TGI [3] | GI50 [4] | TGI [4] | GI50 [5] | TGI [5] | GI50 [6] | TGI [6] | GI50 [7] | TGI [7] | GI50 [8] | TGI [8] | GI50 [9] | TGI [9] | GI50 [10] | TGI [10] |
| --- | --- | --- | --- | --- | --- | --- | --- | --- | --- | --- | --- | --- | --- | --- | --- | --- | --- | --- | --- | --- |
| O=C1/C=C/[C@@H](O)[C@@H]2C[C@@H](O)C[C@H]2/C=C/CCC[C@H](CCO)O1 | 0.245 µM | 0.832 µM | 0.367 µM | > 100 µM | 0.0466 µM | 0.56 µM | 0.377 µM | > 100 µM | 0.233 µM | 0.93 µM | 0.314 µM | > 80.9 µM | 0.237 µM | > 31.6 µM | 0.35 µM | > 100 µM | 0.244 µM | 0.734 µM | 0.343 µM | > 100 µM |
| CC12CCC(C1)C(C)(C)C2OC(=O)c1ccccc1N (stereo not given) |  | 32.8 µM |  | 27.3 µM |  | 31.9 µM |  | 31.9 µM |  | 24.4 µM |  | 31.7 µM |  | 32.4 µM |  | 33.7 µM |  | 29.5 µM |  | 33 µM |
| CN1CCN(Cc2ccc(NC(=O)c3cncc(C#Cc4ccc(N)nc4)c3)cc2C(F)(F)F)CC1 | 1.63 µM | 9.54 µM | 1.58 µM | 8.3 µM | 1.47 µM | 5.54 µM | 2.6 µM | 9.44 µM | 0.408 µM | 1.76 µM | 1.11 µM | 5.17 µM | 1.3 µM | 6.08 µM | 1.12 µM | 5.96 µM | 0.363 µM | 1.36 µM | 0.461 µM | 4.4 µM |
| COc1cc2[nH]c3c(c2cc1OC)CCN[C@@]31CC[C@@]2(CC3c4c(cc(OC)c(O)c42)CCN3C)C[C@@H]1OC (stereo not given in full) |  | 84.5 µM |  | > 100 µM |  | 33.5 µM |  | > 100 µM |  | 69.3 µM |  | > 100 µM |  | > 100 µM |  | > 100 µM |  | 40.6 µM |  | > 100 µM |
| CC1=CC2(C)/C=C(C)/C=C\CC(O)/C=C3/C=CC(=C4C(=O)OC2(CC1C)C4=O)OC3 (stereo not given) | 1.54 µM | 3.46 µM | 1.45 µM | 7.89 µM | 1.6 µM | 3.33 µM | 12 µM | 25.9 µM | 0.524 µM | 1.54 µM | 1.92 µM | 5.01 µM | 8.63 µM | 26.2 µM | 1.47 µM | 3.69 µM | 2.61 µM | 6.51 µM | 1.32 µM | 2.67 µM |
| COC(=O)CC[C@@H](C)[C@H]1CC[C@H]2[C@@H]3CC[C@@H]4C[C@H](O)CC[C@]4(C)[C@H]3CC[C@]12C |  | 37.4 µM |  | 32.2 µM |  | 35.6 µM |  | 44.9 µM |  | 27.8 µM |  | 33.2 µM |  | 35.5 µM |  | 33.7 µM |  | 34.2 µM |  | 39.8 µM |
| COc1cccc(N2CC(O)=C(c3nc4ccccc4s3)C2=N)c1 | 3.24 µM | 70.2 µM | 0.32 µM | > 100 µM | 0.468 µM | > 65 µM | 0.702 µM | > 100 µM | 3.99 µM | > 57.2 µM | 0.379 µM | 5.63 µM | 0.56 µM | 23.4 µM | 0.09 µM | 31.2 µM | 7.14 µM | > 100 µM | 0.307 µM | > 60.2 µM |
